# Tests used:
# [1] = Microsomal stability (intrinsic clearance), mouse liver microsomes; assay type: in vitro ADME; parameters: microsomal CLint: dose or concentration left out as unconfirmed; settings: mouse, liver microsomes, pH 7.4, mouse liver microsomes
# From the text: A microsomal stability assay is used to measure in vitro clearance (Clint). The assay involves measuring the rate of disappearance of a compound due to its intrinsic attitude to be metabolized (“intrinsic” meaning that the disappearance is not affected by other properties like permeability, binding etc. that play a role when quantifying in vivo clearance). The microsomal stability (intrinsic clearance, Clint) and thus metabolic stability is generally given as μl/min/mg protein. It can be visualized as the volume of solution that 1 mg of microsomes is able to clear of the compound in one minute.
# A Tecan Genesis workstation (RSP 150/8) was used for to perform the microsomal incubations. Analysis was carried out using a Waters ACQUITY UPLC system coupled to an ABSciex API3000 mass spectrometer. Data analysis was performed using Assay Explorer (Symyx).
# Mobile phases: A=0.1% formic acid in water; B=acetonitrile
# Flow rate: 0.750 mL/min; Detection: ESI, MRM; Injection: 10 μL; Column temperature: 50° C.
# Potassium phosphate buffer: 0.05 M potassium phosphate buffer pH 7.4 containing 1 mM MgCl2 NADPH (nicotinamide adenine dinucleotide phosphate): 22.5 mg NADPH-Na4 in 1.8 ml potassium phosphate buffer Acetonitrile: 50 Vol % acetonitrile (1 volume acetonitrile, 1 volume water) DMSO: 20 Vol % DMSO in water Stock solution of 20 mg/ml human or mouse liver microsomes (protein)/ml in phosphate buffer Stock solution of 10 mM compound in 100% DMSO
# Kinetic solubility = assay type: physicochemical; settings: phosphate buffer, pH 7.4, aqueous buffer, kinetic from dmso stock, phosphate buffer 20 mM pH 7.4, 2% DMSO, room temperature
# Procedure: Kinetic solubility of compounds of the present invention were tested according the following procedure.
# (a) Buffer Solution Phosphate Buffer 20 mM pH 7.4 is prepared using Sorensen Phosphate Buffer 0.2 M pH 7.4 (EMS) in a 1000 mL volumetric flask (b) 2% DMSO in Phosphate Buffer 20 mM pH 7.4 is prepared by using 1 mL Dimethylsulfoxide (Merck) and 49 ml Sorensen Phosphate Buffer 20 mM pH 7.4 (c) Acetonitrile/Methanole/Eluent A (1:1:2; v/v/v) is prepared by using 50 mL Acetonitrile (Merck), 50 mL Methanol (Merck) and 100 mL Eluent A (d) Eluent A is prepared by using 1 mL Formic Acid (Merck) and 999 mL Ultrapure water (e) Eluent B is prepared by using 1 mL Formic Acid (Merck) and 999 mL Acetonitrile (Merck) (f) Filtration plate: Millipore MultiScreen HTS HV (0.45 μm) 96 Well (Millipore)
# 98 μL buffer solution (a) is added into a well of a 96 well filtration plate (f). Then 2 μL of 10 mM test compound solution in DMSO (Remp tube) is added. The filtration plate is incubated at room temperature for 120 minutes while agitating at 250 rpm and centrifuged with the PP-Plate (g) as receiver plate below (2500 rpm, 3 min). The 50 μL of filtrate is taken from the receiver plate and mixed with 50 μL of 2% DMSO in buffer pH 7.4 solution (b) (dilution factor=2) in a HPLC Vial (i)+(j).
# Standard is prepared by diluting 2 μL of the same 10 mM test compound solution (Remp tube) diluted with 198 μL Acetonitrile/Methanole/Eluent A (1:1:2; v/v/v) (c) to prepare a 100 μM standard solution in a HPLC Vial (i)+(j).
# Column temperature: 37° C. Autosampler: room temperature (approx. 25° C.) Gradient programme: […]
# Injection volume: 10 μL Wavelength: Suitable wavelength (maximum sensitivity) selected out of wavelength range of 190-400 nm using a DAD detector.
# L [μg/mL]=(area sample*concentration standard*dilution factor sample)/(area standard*dilution factor standard)
# S [mol/L]=[…] Calculation: […]
Compound,microsomal CLint [1] [µL/min/mg],solubility kinetic at 120 min (Kinetic solubility) [µM]
"Cn1ccc2ccc(-c3cc(NC(c4cccnc4)c4ccc(=O)[nH]n4)cc4nccnc34)cc21 (single isomer, unassigned) [Example 2]",101,61
"COc1ccc([C@@H](Nc2cc(-c3ccc4ccn(C)c4c3)c3nccnc3c2)c2cccnc2)nn1 (single isomer, unassigned) [Example 5]",154,20
"Cn1cc([C@H](Nc2cc(-c3ccc4ccn(C)c4c3)c3nccnc3c2)c2cnnn2C)cn1 (single isomer, unassigned) [Example 8]",29,110
"Cn1cc([C@H](Nc2cc(-c3ccc4ccn(C)c4c3)c3nccnc3c2)c2cncn2C)cn1 (single isomer, unassigned) [Example 11]",105,100
"COc1ccc([C@@H](Nc2cc(-c3ccc4ccn(C)c4c3)c3nccnc3c2)c2cccnc2)cn1 [Comparative Example 4, [(S)-(6-methoxy-pyridin-3-yl)-pyridin-3-yl-methyl]-[8-(1-methyl-1H-indol-6-yl)-quinoxalin-6-yl]-amine, reference compound]",291,3.7

# Source: patent US20190256499A1, “SUBSTITUTED QUINOXALINE DERIVATIVES AS INHIBITORS OF PFKFB” (priority 2016, published 2019)
